In patent US12319954B2, “Morphinan compounds” (Concert Pharmaceuticals, Inc., priority 2007, dated 2025):

Assays:
[1] = monkeys, FIG. 6
Procedure: OBJECTIVE—The objective of this study was to collect plasma samples from Cynomolgus Monkeys at various time points following oral administration of test articles in combination. The samples were used for the determination of plasma drug levels by LC/MS/MS for estimating pharmacokinetic parameters. This study was conducted in accordance with Shanghai Medicilon Inc. Standard Operating Procedures (SOPs). The Sponsor provided the test compounds and internal standard compound.
EXPERIMENTAL DESIGN—Four Cynomolgus Monkeys were used in this study.
The combination dose was prepared by mixing both by 1:1 to yield a concentration of 1 mg/mL for each compound. […] Quinidine was prepared in DMI:EtOH:PG:water (10:15:35:40, v/v/v/v) at 3 mg/mL and dosed separately. The doses were given BID orally with an interval of 12 hours. […] Dosing volume of Quinidine was determined based on the dose each animal was getting. Dose volumes for each test animal was determined based on individual body weight. Body weights were taken on each day of dose administration and were be recorded.
Urine Sample Collection—Urine samples in between two doses on Day 5 (for 12 hours between doses 9 and 10) were collected in a plate and quantified by volume. After collection, the urine samples were be stored in −20° C. and then shipped back to client. […]

[2] = Plasma levels in cynomolgus monkeys after oral BID co-dosing of Compound 101 and dextromethorphan, with or without quinidine; assay type: in vivo
Procedure: Blood Sample Collection—Blood sampling tOOK place on Day 6 after oral administration of the last dose (Dose 11). Blood (approximately 1 mL) was collected via femoral vein into tubes containing sodium heparin anticoagulant at 0.25, 0.5, 1, 1.5, 2, 3.5, 6 and 8 hours. The plasma was separated via centrifugation and stored in −20° C. before analysis.
Dilution using cynomolgus monkey plasma blank were applied if the sample concentration was over the ULOQ of calibration standard curve. The data acquisition and control system was created using Analyst 1.4 software from ABI Inc.

[3] = Metabolic stability in human liver microsomes; conditions: for remained intact after 30 minutes of incubation: 0.25 μM compound, 2 mg/mL human liver microsomes, FIG. 2
Procedure: (§1) The objectives of this study were to determine the metabolic stability of the test compounds in pooled human and […] liver microsomal incubations. Samples of the test compounds, exposed to pooled human or […] liver microsomes, were analyzed using HPLC-MS (or MS/MS) detection. For determining metabolic stability, multiple reaction monitoring (MRM) was used to measure the disappearance of the test compounds.
(§2) Experimental Procedures: Human liver and Cynomolgus monkey liver microsomes were obtained from XenoTech, LLC (Lenexa, KS). The incubation mixtures were prepared as follows:
(§3) Incubation of Test Compounds with Liver Microsomes: The reaction mixture, minus cofactors, was prepared. An aliquot of the reaction mixture (without cofactors) was incubated in a shaking water bath at 37° C. for 3 minutes. Another aliquot of the reaction mixture was prepared as the negative control. The test compound was added into both the reaction mixture and the negative control at a final concentration of 0.10, 0.25, or 1 μM. An aliquot of the reaction mixture was prepared as a blank control, by the addition of plain organic solvent (no test compound is added). The reaction was initiated by the addition of cofactors (not added to the negative controls), and then incubated in a shaking water bath at 37° C. Aliquots (200 μL) were withdrawn in triplicate at multiple time points and combined with 800 μL of ice-cold 50/50 acetonitrile/dH2O to terminate the reaction.
All samples were analyzed using LC-MS (or MS/MS). An LC-MRM-MS/MS method is used for metabolic stability. For testing in cynomolgus monkey liver microsomes, a final concentration of 1 μM of each compound and 0.5 mg/mL of microsomes were used.

[4] = Metabolic stability in cynomolgus monkey liver microsomes; conditions: 1 μM compound, 0.5 mg/mL microsomes; FIG. 1
Procedure: as §1, §2
as §3, with “Aliquots (200 μL) were withdrawn in triplicate at multiple time points and combined with 800 μL of ice-cold 50/50 acetonitrile/dH2O to terminate the reaction.” left out
All samples were analyzed using LC-MS (or MS/MS). […]

[5] = target: T1, Human CYP2D6+P450 Reductase SUPERSOMES (Homo sapiens, UniProt P10635); assay: Metabolic stability in CYP2D6 SUPERSOMES; assay type: in vitro ADME; conditions: 0.1 μM compound, 20 minutes
T1 construct: purchased GenTest (Woburn, MA, USA); host or cells: insect cells (inferred from the negative control, insect cell microsomes)
T1 sequence (P10635 whole entry): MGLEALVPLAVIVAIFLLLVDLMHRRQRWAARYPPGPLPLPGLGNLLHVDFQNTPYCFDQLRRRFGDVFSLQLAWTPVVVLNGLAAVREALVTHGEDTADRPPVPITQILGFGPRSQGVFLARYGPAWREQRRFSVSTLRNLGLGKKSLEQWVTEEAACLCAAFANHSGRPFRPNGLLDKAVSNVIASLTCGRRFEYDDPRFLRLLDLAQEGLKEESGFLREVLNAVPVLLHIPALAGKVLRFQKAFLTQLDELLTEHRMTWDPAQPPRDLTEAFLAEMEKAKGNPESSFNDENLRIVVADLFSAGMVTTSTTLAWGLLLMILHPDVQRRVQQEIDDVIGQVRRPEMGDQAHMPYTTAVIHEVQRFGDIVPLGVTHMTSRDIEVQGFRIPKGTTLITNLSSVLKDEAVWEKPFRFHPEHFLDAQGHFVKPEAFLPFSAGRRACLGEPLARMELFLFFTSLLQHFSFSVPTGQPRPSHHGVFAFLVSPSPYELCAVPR
Procedure: Human CYP2D6+P450 Reductase SUPERSOMES™ were purchased from GenTest (Woburn, MA, USA). […] Aliquots (50 μL) were removed from each sample and placed in wells of a multi-well plate at 0, 2, 5, 7, 12, 20, and 30 minutes and to each was added 50 μL of ice cold acetonitrile with 3 μM haloperidol as an internal standard to stop the reaction.
Plates containing the removed aliquots were then placed in −20° C. freezer for 15 minutes to cool. After cooling, 100 μL of deionized water was added to all wells in the plate. Plates were then spun in the centrifuge for 10 minutes at 3000 rpm. A portion of the supernatant (100 μL) was then removed, placed in a new plate and analyzed using Mass Spectrometry.

Molecule | urine level of parent compound compared to dextromethorphan ([1]; at the same quinidine concentration) | plasma levels compared to dextromethorphan ([2]; co administered with the same amount of quinidine, FIG. 5) | metabolism to deuterated dextrorphan isotopologues (plasma) ([2]; no quinidine, FIG. 4) | remained intact after 30 minutes of incubation [3] | stability in monkey liver microsomes compared with dextromethorphan [4] | urine levels, effect of quinidine concentration [1] | intact compound at the 20 minute time point with 2D6 Supersomes [5] | remained intact after a 30 minute exposure ([3]; 0.5 mg/mL human liver microsomes)
[2H]C([2H])([2H])Oc1ccc2c(c1)[C@]13CCCC[C@@H]1[C@H](C2)N(C([2H])([2H])[2H])CC3 [Compound 101, (+)-3-d3-methoxy-17-d3-methyl-(9α, 13α, 14α)-morphinan] | less Compound 101 in the urine than dextromethorphan | greater than dextromethorphan plasma levels | reduced relative to metabolism of dextromethorphan to dextrorphan | approximately 45% | greater stability than dextromethorphan |  |  | 
COc1ccc2c(c1)[C@]13CCCC[C@@H]1[C@H](C2)N(C)CC3 [Dextromethorphan, (+)-3-methoxy-17-methyl-(9α, 13α, 14α)-morphinan, reference compound] |  |  |  | about 33% |  | affected by increasing quinidine concentration | no intact dextromethorphan could be detected | 
(+)-3-d3-methoxy-17-methyl-(9α, 13α, 14α)-morphinan [Compound 100] |  |  |  | ~42% | greater stability than dextromethorphan |  |  | ~71%
